Molecular target: T1, c-kit mutant D816V (Homo sapiens, UniProt P10721, D816V/DEL694-753)
T1 construct: residues 551-934, kinase insertion domain residues 694-753 deleted; 6x-histidine (N); made in house; host or cells: E. coli Arctic Express (DE3) RIL (Stratagene)
Assay: c-Kit mutant D816V biochemical assay, AlphaScreen
Conditions: c-kit D816V biochemical inhibitory activity; read-out: Biochemical activity (IC50 μM) Kit D816V
Method: Compounds to be tested were dissolved in DMSO to a concentration of 20 mM. These were diluted 30 μl into 120 μl of DMSO (4 mM) and 1 μl was added to an assay plate. These were then serially diluted 1:3 (50 μl to 100 μl DMSO) for a total of 8 points. Plates were prepared such that each kinase reaction is 20 μl in 1× kinase buffer (25 mM HEPES, pH 7.2, 8 mM MgCl2, 2 mM MnCl2, 50 mM NaCl, 0.01% Brij, 1 mM DTT, 0.01% BSA), 5% DMSO and 10 μM ATP. […] After incubation of the kinase reaction for 30 minutes at room temperature, 5 μl of donor beads (Streptavidin coated beads (Perkin Elmer Life Science) final concentration 7.5 μg/ml) in stop buffer (25 mM Hepes pH 7.5, 100 mM EDTA, 0.01% BSA) was added, the sample was mixed and incubated for 20 minutes at room temperature before adding 5 μl of acceptor beads (PY20 coated beads (Perkin Elmer Life Science) final concentration 7.5 μg/ml) in stop buffer. The samples were incubated for 60 minutes at room temperature and the signal per well was read on EnVision reader. […] The signal vs. compound concentration was used to determine the IC50.
Cells were grown in Terrific Broth (TB) media to an OD600 of 0.6 at 37° C. at which temperature was reduced to 10° C., protein was induced with 1.0 mM IPTG for 18 hours and harvested by centrifugation at 8000×g for 20 minutes. Cells were re-suspended in 0.1M KPO4 pH 8.0, 250 mM NaCl, 10% Glycerol, 0.75% NP-40, 25 mM Imidazole, 5 mM BME with 0.2 mg/ml Lysosyme, 2.0 mM PMSF, 25 μg/ml DNAse I, incubated in ice for 30 minutes and lysed with a cell disruptor (MicroFluidics). The lysate was clarified by centrifugation at 20,000×g for 2 hours. The protein was captured with Talon resin (Clontech). Contaminating proteins were washed off with 25 mM Tris-HCl pH 8.3, 250 mM NaCl, 15% Glycerol, 1% Triton X-100, and protein eluted using 100 mM EDTA. The protein was further purified using Gel Filtration column 26/600 Superdex 200 (GE) in 50 mM Tris-HCl, pH 8.0, 250 mM NaCl, 15% Glycerol, 5 mM BME. The protein was aliquoted and flash-frozen in liquid Nitrogen.

T1 sequence (P10721 with tags, fused parts or gaps DEL694-753/D816V): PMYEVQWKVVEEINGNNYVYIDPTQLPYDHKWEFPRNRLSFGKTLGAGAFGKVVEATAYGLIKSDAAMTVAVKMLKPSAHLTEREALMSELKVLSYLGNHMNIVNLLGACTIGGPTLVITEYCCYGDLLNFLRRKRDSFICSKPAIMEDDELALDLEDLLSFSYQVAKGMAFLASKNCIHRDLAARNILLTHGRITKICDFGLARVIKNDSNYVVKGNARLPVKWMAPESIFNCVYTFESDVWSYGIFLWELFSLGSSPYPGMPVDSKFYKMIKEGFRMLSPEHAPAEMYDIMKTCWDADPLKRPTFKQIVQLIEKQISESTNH

For `CC(NC(=O)N1CCN(c2ncnc3[nH]c(-c4ccc(Cl)cc4)cc23)C[C@H]1C)c1ccc(Cl)cc1` (stereo in doubt) [P-0021, (2R)-N-[(1S)-1-(4-chlorophenyl)ethyl]-4-[6-(4-chlorophenyl)-7H-pyrrolo[2,3-d]pyrimidin-4-yl]-2-methyl-piperazine-1-carboxamide], which IC50 is on record?
The IC50 was 1 to 10 µM.

With `CC(C)(C)Oc1ccc(NC(=O)N2CCN(c3ncnc4[nH]c(-c5ccc(Cl)cc5)cc34)CC2)cc1` [P-0017, N-(4-tert-butoxyphenyl)-4-[6-(4-chlorophenyl)-7H-pyrrolo[2,3-d]pyrimidin-4-yl]piperazine-1-carboxamide] as the compound, how does the IC50 read?
Its IC50 is 10 to 200 µM.

Which IC50 does the source give for `C[C@@H]1CN(c2ncnc3[nH]c(-c4ccc(Cl)cc4)cc23)CCN1C(=O)N[C@H](C)c1ccc(F)cc1` [P-0022, (2R)-4-[6-(4-chlorophenyl)-7H-pyrrolo[2,3-d]pyrimidin-4-yl]-N-[(1R)-1-(4-fluorophenyl)ethyl]-2-methyl-piperazine-1-carboxamide] here?
The IC50 was 0.0001 to 1 µM.

For `COc1cccc([C@@H](C)NC(=O)N2CCN(c3ncnc4[nH]c(-c5ccc(Cl)cc5)cc34)C[C@H]2C)c1` [P-0025, (2R)-4-[6-(4-chlorophenyl)-7H-pyrrolo[2,3-d]pyrimidin-4-yl]-N-[(1R)-1-(3-methoxyphenyl)ethyl]-2-methyl-piperazine-1-carboxamide], which IC50 is on record?
Its IC50 is 10 to 200 µM.

For `O=S(=O)(NN1CCN(c2ncnc3[nH]c(-c4ccc(F)cc4)cc23)CC1)c1ccc(OC(F)(F)F)cc1` [P-0026, N-[4-[6-(4-fluorophenyl)-7H-pyrrolo[2,3-d]pyrimidin-4-yl]piperazin-1-yl]-4-(trifluoromethoxy)benzenesulfonamide], which IC50 is on record?
Its IC50 is 10 to 200 µM.

For `C[C@H](NC(=O)N1CCN(c2ncnc3[nH]c(-c4ccc(F)cc4)cc23)CC1)c1cccc(C(F)(F)F)c1` [P-0033, 4-[6-(4-fluorophenyl)-7H-pyrrolo[2,3-d]pyrimidin-4-yl]-N-[(1S)-1-[3-(trifluoromethyl)phenyl]ethyl]piperazine-1-carboxamide], which IC50 is on record?
The IC50 was 0.0001 to 1 µM.

`C[C@@H]1CN(c2ncnc3[nH]c(-c4ccc(F)cc4)cc23)CCN1C(=O)N[C@H](C)c1ccc(F)cc1` [P-0034, (2R)-N-[(1R)-1-(4-fluorophenyl)ethyl]-4-[6-(4-fluorophenyl)-7H-pyrrolo[2,3-d]pyrimidin-4-yl]-2-methyl-piperazine-1-carboxamide] was tested. Which IC50 did it give?
Its IC50 is 1 to 10 µM.

For `C[C@H](NC(=O)N1CCN(c2ncnc3[nH]c(-c4ccc(F)cc4)cc23)CC1)c1cccc(F)c1` [P-0036, N-[(1S)-1-(3-fluorophenyl)ethyl]-4-[6-(4-fluorophenyl)-7H-pyrrolo[2,3-d]pyrimidin-4-yl]piperazine-1-carboxamide], which IC50 is on record?
Its IC50 is 0.0001 to 1 µM.

`O=C(NCc1cccc(OC(F)F)c1)N1CCN(c2ncnc3[nH]c(-c4ccc(Cl)cc4)cc23)CC1` [P-0037, 4-[6-(4-chlorophenyl)-7H-pyrrolo[2,3-d]pyrimidin-4-yl]-N-[[3-(difluoromethoxy)phenyl]methyl]piperazine-1-carboxamide] was tested. Which IC50 did it give?
Its IC50 is 1 to 10 µM.

How did the IC50 turn out when `COc1cccc([C@H](C)NC(=O)N2CCN(c3ncnc4[nH]c(-c5ccc(Cl)cc5)cc34)CC2)c1` [P-0038, 4-[6-(4-chlorophenyl)-7H-pyrrolo[2,3-d]pyrimidin-4-yl]-N-[(1S)-1-(3-methoxyphenyl)ethyl]piperazine-1-carboxamide] was run?
Its IC50 is 0.0001 to 1 µM.

With `Cc1ccc(NC(=O)N2CCN(c3ncnc4[nH]c(-c5ccncc5)cc34)C[C@@H]2C)cn1` [P-0039, (2S)-2-methyl-N-(6-methyl-3-pyridyl)-4-[6-(4-pyridyl)-7H-pyrrolo[2,3-d]pyrimidin-4-yl]piperazine-1-carboxamide] as the compound, how does the IC50 read?
The IC50 was 1 to 10 µM.

With `C[C@H]1CN(c2ncnc3[nH]c(-c4ccncc4)cc23)CCN1C(=O)NCc1cccc(Cl)c1` [P-0040, (2S)-N-[(3-chlorophenyl)methyl]-2-methyl-4-[6-(4-pyridyl)-7H-pyrrolo[2,3-d]pyrimidin-4-yl]piperazine-1-carboxamide] as the compound, how does the IC50 read?
The IC50 was 0.0001 to 1 µM.

With `C[C@H]1CN(c2ncnc3[nH]c(-c4ccncc4)cc23)CCN1C(=O)NCc1ccc(F)cc1` [P-0041, (2S)-N-[(4-fluorophenyl)methyl]-2-methyl-4-[6-(4-pyridyl)-7H-pyrrolo[2,3-d]pyrimidin-4-yl]piperazine-1-carboxamide] as the compound, how does the IC50 read?
The IC50 was 0.0001 to 1 µM.

`CC[C@H](NC(=O)N1CCN(c2ncnc3[nH]c(-c4ccncc4)cc23)C[C@@H]1C)c1ccccc1` [P-0048, (2S)-2-methyl-N-[(1S)-1-phenylpropyl]-4-[6-(4-pyridyl)-7H-pyrrolo[2,3-d]pyrimidin-4-yl]piperazine-1-carboxamide] was tested. Which IC50 did it give?
The IC50 was 0.0001 to 1 µM.

With `C[C@H](NC(=O)N1CCN(c2ncnc3[nH]c(-c4ccncc4)cc23)C[C@@H]1C)c1ccc(F)cc1` [P-0049, (2S)-N-[(1S)-1-(4-fluorophenyl)ethyl]-2-methyl-4-[6-(4-pyridyl)-7H-pyrrolo[2,3-d]pyrimidin-4-yl]piperazine-1-carboxamide] as the compound, how does the IC50 read?
Its IC50 is 0.0001 to 1 µM.

`C[C@H](NC(=O)N1CCN(c2ncnc3[nH]c(-c4ccncc4)cc23)C[C@@H]1C)c1ccc(Cl)cc1` [P-0050, (2S)-N-[(1S)-1-(4-chlorophenyl)ethyl]-2-methyl-4-[6-(4-pyridyl)-7H-pyrrolo[2,3-d]pyrimidin-4-yl]piperazine-1-carboxamide] was tested. Which IC50 did it give?
The IC50 was 0.0001 to 1 µM.

`COc1cccc([C@H](C)NC(=O)N2CCN(c3ncnc4[nH]c(-c5ccncc5)cc34)C[C@@H]2C)c1` [P-0051, (2S)-N-[(1S)-1-(3-methoxyphenyl)ethyl]-2-methyl-4-[6-(4-pyridyl)-7H-pyrrolo[2,3-d]pyrimidin-4-yl]piperazine-1-carboxamide] was tested. Which IC50 did it give?
The IC50 was 0.0001 to 1 µM.

`CC[C@H](NC(=O)N1CCN(c2ncnc3[nH]c(-c4ccncc4)cc23)C[C@H]1C)c1ccccc1` [P-0054, (2R)-2-methyl-N-[(1S)-1-phenylpropyl]-4-[6-(4-pyridyl)-7H-pyrrolo[2,3-d]pyrimidin-4-yl]piperazine-1-carboxamide] was tested. Which IC50 did it give?
Its IC50 is 0.0001 to 1 µM.

Which IC50 does the source give for `Cc1ccc(NC(=O)N2CCN(c3ncnc4[nH]c(-c5ccncc5)cc34)C[C@H]2C)cn1` [P-0055, (2R)-2-methyl-N-(6-methyl-3-pyridyl)-4-[6-(4-pyridyl)-7H-pyrrolo[2,3-d]pyrimidin-4-yl]piperazine-1-carboxamide] here?
Its IC50 is 0.0001 to 1 µM.

Which IC50 does the source give for `COc1cccc([C@H](C)NC(=O)N2CCN(c3ncnc4[nH]c(-c5ccc(C#N)cc5)cc34)CC2)c1` [P-0069, 4-[6-(4-cyanophenyl)-7H-pyrrolo[2,3-d]pyrimidin-4-yl]-N-[(1S)-1-(3-methoxyphenyl)ethyl]piperazine-1-carboxamide] here?
Its IC50 is 0.0001 to 1 µM.

For `O=C(NCc1cccc(OC(F)F)c1)N1CCN(c2ncnc3[nH]c(-c4ccc(F)cc4)cc23)CC1` [P-0073, N-[[3-(difluoromethoxy)phenyl]methyl]-4-[6-(4-fluorophenyl)-7H-pyrrolo[2,3-d]pyrimidin-4-yl]piperazine-1-carboxamide], which IC50 is on record?
The IC50 was 1 to 10 µM.

With `O=C(NCc1cccc(OC(F)(F)F)c1)N1CCN(c2ncnc3[nH]c(-c4ccc(F)cc4)cc23)CC1` [P-0076, 4-[6-(4-fluorophenyl)-7H-pyrrolo[2,3-d]pyrimidin-4-yl]-N-[[3-(trifluoromethoxy)phenyl]methyl]piperazine-1-carboxamide] as the compound, how does the IC50 read?
Its IC50 is 1 to 10 µM.

How did the IC50 turn out when `CCNC(=O)N1CCN(c2ncnc3[nH]c(-c4ccc(F)cc4)cc23)CC1` [P-0088, N-ethyl-4-[6-(4-fluorophenyl)-7H-pyrrolo[2,3-d]pyrimidin-4-yl]piperazine-1-carboxamide] was run?
The IC50 was 1 to 10 µM.

`O=C(NCc1ccc(F)cc1)N1CCN(c2ncnc3[nH]c(-c4ccc(F)cc4)cc23)CC1` [P-0090, N-[(4-fluorophenyl)methyl]-4-[6-(4-fluorophenyl)-7H-pyrrolo[2,3-d]pyrimidin-4-yl]piperazine-1-carboxamide] was tested. Which IC50 did it give?
The IC50 was 0.0001 to 1 µM.

How did the IC50 turn out when `COc1cccc(CNC(=O)N2CCN(c3ncnc4[nH]c(-c5ccc(F)cc5)cc34)CC2)n1` [P-0122, 4-[6-(4-fluorophenyl)-7H-pyrrolo[2,3-d]pyrimidin-4-yl]-N-[(6-methoxy-2-pyridyl)methyl]piperazine-1-carboxamide] was run?
The IC50 was 1 to 10 µM.

For `O=C(NCc1ccc(F)cn1)N1CCN(c2ncnc3[nH]c(-c4cccnc4)cc23)CC1` [P-0124, N-[(5-fluoro-2-pyridyl)methyl]-4-[6-(3-pyridyl)-7H-pyrrolo[2,3-d]pyrimidin-4-yl]piperazine-1-carboxamide], which IC50 is on record?
Its IC50 is 1 to 10 µM.

Which IC50 does the source give for `C[C@H](NC(=O)N1CCN(c2ncnc3[nH]c(-c4ccc(F)cc4)cc23)CC1)c1ccc(F)cc1` [P-0126, N-[(1S)-1-(4-fluorophenyl)ethyl]-4-[6-(4-fluorophenyl)-7H-pyrrolo[2,3-d]pyrimidin-4-yl]piperazine-1-carboxamide] here?
The IC50 was 0.0001 to 1 µM.

— US10227357B2, “Compounds and methods for kinase modulation, and indications therefor” (Plexxikon Inc., priority 2012, dated 2019)
